Data published in patent publication US8586768B2, “Design, synthesis and functional characterization of rottlerin analogs” (priority 2009, dated 2013).

What was measured:
Test in all cases: In-vitro kinase profiling, radioisotope screening assay (Signal Chem)
Type in all cases: biochemical
[1] = biological target: T1, PKCγ (Homo sapiens, UniProt P05129); settings: 5 μM compound, 50 μM ATP, vs vehicle control; negative = inhibition
T1 construct: purchased Signal Chem (Richmond, BC, Canada)
Description: (§1) Kinase profiling of PK analogs. The inhibitory effect of lead PK analogs were tested against a panel of 15 protein kinase targets (TABLE 1) to develop better lead candidates without “off” target effects. The selectivity assay was performed at Signal Chem™ (Richmond, BC, Canada) by profiling against protein kinase targets using the “Gold Standard” radioisotope screening assay format. This assay format gave the highest signal noise ratio and allowed the direct measurement of catalytic activity of a protein kinase.
(§2) All assays were performed in triplicate in a 96-well assay format and the % error between triplicates is <10%. Protein kinase assays was performed in the presence of 50 μM ATP at 30° C. for 15 min. The activity of the enzymes in the presence of 5 μM PK analogs was compared to that in the vehicle control and expressed as a percent change in activity relative to that observed in the vehicle control. In TABLE 1, the results are expressed as percent activity change compared to control. The intra-assay variability was determined to be less than 10%. Inhibition of target activity by the compound is shown by a negative value, while activation of target activity is shown by positive value, with values >10% considered to be highly significant.

[2] = biological target: T2, PKCα (Homo sapiens, UniProt P17252); settings: 5 μM compound, 50 μM ATP, vs vehicle control; negative = inhibition
T2 construct: purchased Signal Chem (Richmond, BC, Canada)
Description: as §1, §2

[3] = biological target: T3, PKAα (Homo sapiens, UniProt P17612); settings: 5 μM compound, 50 μM ATP, vs vehicle control; negative = inhibition
T3 construct: purchased Signal Chem (Richmond, BC, Canada)
Description: as §1, §2

[4] = biological target: T4, PKCμ (Homo sapiens, UniProt Q15139); settings: 5 μM compound, 50 μM ATP, vs vehicle control; negative = inhibition
T4 construct: purchased Signal Chem (Richmond, BC, Canada)
T4 sequence (Q15139 1-912): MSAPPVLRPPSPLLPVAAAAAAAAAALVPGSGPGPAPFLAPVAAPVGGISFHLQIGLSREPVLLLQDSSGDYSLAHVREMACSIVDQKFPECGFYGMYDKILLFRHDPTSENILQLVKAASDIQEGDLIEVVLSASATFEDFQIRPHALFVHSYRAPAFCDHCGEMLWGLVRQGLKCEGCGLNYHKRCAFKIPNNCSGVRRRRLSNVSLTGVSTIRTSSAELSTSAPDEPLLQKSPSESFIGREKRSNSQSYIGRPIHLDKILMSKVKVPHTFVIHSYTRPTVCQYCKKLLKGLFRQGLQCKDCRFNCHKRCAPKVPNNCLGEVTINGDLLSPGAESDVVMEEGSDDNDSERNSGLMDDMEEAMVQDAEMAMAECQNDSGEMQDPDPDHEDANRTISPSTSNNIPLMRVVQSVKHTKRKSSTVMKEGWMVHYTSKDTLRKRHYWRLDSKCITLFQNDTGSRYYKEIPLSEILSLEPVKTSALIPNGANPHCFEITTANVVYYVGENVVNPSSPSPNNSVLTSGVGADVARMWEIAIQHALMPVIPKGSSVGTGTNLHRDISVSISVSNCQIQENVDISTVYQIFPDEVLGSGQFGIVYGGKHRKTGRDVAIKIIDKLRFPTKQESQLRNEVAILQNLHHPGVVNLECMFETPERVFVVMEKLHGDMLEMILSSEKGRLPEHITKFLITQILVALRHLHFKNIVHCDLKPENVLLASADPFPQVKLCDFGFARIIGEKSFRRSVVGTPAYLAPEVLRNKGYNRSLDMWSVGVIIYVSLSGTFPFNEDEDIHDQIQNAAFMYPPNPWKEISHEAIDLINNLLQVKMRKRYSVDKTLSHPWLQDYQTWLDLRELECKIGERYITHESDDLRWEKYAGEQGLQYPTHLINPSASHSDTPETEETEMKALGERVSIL
Description: as §1, §2

[5] = biological target: T5, ERKI (Homo sapiens, UniProt P27361); settings: 5 μM compound, 50 μM ATP, vs vehicle control; negative = inhibition
T5 construct: purchased Signal Chem (Richmond, BC, Canada)
Description: as §1, §2

[6] = biological target: T6, AKT1 (Homo sapiens, UniProt P31749); settings: for % activity change: 5 μM compound, 50 μM ATP, vs vehicle control, negative = inhibition
T6 construct: purchased Signal Chem (Richmond, BC, Canada)
T6 sequence (P31749 whole entry): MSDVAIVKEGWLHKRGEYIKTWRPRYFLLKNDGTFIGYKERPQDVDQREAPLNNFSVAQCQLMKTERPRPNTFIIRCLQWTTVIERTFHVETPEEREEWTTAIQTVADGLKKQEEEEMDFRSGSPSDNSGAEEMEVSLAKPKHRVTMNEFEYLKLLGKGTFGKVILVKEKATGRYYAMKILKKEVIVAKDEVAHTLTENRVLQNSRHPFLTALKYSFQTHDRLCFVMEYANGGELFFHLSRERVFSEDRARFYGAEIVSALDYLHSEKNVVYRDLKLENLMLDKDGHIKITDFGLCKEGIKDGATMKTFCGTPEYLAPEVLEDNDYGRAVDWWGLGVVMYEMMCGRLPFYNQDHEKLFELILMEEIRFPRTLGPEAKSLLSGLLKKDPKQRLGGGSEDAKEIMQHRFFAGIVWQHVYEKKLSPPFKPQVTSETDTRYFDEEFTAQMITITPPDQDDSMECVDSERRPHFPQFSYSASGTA
Description: as §1, §2

[7] = biological target: T7, JNK3 (Homo sapiens, UniProt P53779); settings: for % activity change: 5 μM compound, 50 μM ATP, vs vehicle control, negative = inhibition; for inhibited by % compared to control: 5 μM concentration, given as positive inhibition
T7 construct: purchased Signal Chem (Richmond, BC, Canada)
T7 sequence (P53779 whole entry): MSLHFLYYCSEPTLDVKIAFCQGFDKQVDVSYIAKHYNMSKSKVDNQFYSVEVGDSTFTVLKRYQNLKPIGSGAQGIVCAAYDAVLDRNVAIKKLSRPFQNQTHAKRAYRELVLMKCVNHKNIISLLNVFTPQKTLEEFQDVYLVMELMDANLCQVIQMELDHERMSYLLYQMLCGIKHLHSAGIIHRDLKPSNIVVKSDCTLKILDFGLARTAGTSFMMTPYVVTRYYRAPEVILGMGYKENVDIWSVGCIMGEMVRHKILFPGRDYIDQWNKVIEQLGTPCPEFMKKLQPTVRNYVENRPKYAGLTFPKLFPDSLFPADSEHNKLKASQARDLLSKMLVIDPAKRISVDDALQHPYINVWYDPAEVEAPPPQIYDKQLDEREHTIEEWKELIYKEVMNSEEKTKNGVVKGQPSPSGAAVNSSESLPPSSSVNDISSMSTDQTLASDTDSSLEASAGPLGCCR
Description: as §1, §2

[8] = biological target: T8, PKCη (Homo sapiens, UniProt P24723); settings: 5 μM compound, 50 μM ATP, vs vehicle control; negative = inhibition
T8 construct: purchased Signal Chem (Richmond, BC, Canada)
T8 sequence (P24723 whole entry): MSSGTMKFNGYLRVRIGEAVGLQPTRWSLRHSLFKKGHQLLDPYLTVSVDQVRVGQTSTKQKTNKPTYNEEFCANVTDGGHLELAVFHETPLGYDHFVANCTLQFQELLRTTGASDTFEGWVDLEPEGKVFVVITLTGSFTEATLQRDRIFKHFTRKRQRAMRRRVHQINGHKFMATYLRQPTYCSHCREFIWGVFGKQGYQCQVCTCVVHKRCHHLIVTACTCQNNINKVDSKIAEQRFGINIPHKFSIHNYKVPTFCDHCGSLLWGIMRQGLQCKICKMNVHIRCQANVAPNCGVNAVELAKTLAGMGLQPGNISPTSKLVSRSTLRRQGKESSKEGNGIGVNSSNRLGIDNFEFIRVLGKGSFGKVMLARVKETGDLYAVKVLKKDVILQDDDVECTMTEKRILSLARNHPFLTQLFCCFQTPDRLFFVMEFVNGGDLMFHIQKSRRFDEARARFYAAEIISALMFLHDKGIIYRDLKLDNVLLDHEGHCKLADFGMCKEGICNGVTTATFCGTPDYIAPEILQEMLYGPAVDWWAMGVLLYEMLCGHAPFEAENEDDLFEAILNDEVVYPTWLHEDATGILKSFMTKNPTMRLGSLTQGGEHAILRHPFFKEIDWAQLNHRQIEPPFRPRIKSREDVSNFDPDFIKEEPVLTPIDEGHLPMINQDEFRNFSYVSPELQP
Description: as §1, §2

[9] = biological target: T9, PKCε (Homo sapiens, UniProt Q02156); settings: for % activity change: 5 μM compound, 50 μM ATP, vs vehicle control, negative = inhibition
T9 construct: purchased Signal Chem (Richmond, BC, Canada)
T9 sequence (Q02156 1-737): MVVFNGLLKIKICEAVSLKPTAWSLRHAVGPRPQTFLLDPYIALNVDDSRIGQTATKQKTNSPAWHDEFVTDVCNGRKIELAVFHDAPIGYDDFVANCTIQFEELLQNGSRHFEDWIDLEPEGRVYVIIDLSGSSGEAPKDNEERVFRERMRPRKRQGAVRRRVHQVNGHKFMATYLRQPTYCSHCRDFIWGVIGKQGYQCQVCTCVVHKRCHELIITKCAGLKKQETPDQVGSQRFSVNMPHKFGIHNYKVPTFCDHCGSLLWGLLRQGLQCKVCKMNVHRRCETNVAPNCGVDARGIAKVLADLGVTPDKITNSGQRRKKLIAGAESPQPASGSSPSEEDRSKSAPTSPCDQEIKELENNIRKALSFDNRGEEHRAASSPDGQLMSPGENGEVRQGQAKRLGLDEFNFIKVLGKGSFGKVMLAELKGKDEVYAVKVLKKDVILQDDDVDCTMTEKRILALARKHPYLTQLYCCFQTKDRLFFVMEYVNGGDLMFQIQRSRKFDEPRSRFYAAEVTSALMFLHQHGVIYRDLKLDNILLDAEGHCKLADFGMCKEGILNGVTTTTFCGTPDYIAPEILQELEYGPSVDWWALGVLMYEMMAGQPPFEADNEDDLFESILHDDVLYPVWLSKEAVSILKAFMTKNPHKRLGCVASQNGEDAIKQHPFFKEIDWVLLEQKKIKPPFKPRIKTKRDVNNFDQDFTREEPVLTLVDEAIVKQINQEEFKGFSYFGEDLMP
Description: as §1, §2

[10] = biological target: T10, P13K (p110b/p85a) (Homo sapiens, UniProt P42338); settings: 5 μM compound, 50 μM ATP, vs vehicle control; negative = inhibition
T10 construct: purchased Signal Chem (Richmond, BC, Canada)
T10 sequence (P42338 whole entry, stated change not applied): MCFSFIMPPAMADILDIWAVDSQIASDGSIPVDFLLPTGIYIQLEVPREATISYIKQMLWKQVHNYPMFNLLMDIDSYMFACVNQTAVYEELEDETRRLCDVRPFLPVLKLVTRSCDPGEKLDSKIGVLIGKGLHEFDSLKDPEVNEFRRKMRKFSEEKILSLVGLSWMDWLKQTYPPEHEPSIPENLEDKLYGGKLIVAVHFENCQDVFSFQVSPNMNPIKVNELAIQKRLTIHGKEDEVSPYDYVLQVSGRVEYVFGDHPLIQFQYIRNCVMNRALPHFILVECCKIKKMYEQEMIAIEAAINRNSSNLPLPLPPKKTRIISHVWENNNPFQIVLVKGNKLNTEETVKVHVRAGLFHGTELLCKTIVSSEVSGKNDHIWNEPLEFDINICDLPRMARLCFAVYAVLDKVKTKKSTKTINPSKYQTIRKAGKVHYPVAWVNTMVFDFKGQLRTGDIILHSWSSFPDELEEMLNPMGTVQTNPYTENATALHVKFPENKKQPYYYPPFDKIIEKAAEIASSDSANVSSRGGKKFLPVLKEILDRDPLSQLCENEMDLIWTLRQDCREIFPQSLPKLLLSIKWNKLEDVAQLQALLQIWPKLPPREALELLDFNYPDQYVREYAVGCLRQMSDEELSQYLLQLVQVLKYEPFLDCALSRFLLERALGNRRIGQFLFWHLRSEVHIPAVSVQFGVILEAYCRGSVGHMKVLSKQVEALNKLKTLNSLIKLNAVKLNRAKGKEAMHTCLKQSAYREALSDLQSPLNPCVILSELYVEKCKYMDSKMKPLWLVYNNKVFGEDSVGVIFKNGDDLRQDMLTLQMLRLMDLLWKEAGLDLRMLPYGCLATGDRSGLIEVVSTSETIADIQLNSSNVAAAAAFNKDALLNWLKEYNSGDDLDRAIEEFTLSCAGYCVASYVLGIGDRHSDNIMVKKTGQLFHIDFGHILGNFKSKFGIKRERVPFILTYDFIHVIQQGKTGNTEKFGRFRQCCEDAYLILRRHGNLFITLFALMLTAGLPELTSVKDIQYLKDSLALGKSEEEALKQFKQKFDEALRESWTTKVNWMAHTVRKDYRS
T10 sequence (P27986 2-724 partner): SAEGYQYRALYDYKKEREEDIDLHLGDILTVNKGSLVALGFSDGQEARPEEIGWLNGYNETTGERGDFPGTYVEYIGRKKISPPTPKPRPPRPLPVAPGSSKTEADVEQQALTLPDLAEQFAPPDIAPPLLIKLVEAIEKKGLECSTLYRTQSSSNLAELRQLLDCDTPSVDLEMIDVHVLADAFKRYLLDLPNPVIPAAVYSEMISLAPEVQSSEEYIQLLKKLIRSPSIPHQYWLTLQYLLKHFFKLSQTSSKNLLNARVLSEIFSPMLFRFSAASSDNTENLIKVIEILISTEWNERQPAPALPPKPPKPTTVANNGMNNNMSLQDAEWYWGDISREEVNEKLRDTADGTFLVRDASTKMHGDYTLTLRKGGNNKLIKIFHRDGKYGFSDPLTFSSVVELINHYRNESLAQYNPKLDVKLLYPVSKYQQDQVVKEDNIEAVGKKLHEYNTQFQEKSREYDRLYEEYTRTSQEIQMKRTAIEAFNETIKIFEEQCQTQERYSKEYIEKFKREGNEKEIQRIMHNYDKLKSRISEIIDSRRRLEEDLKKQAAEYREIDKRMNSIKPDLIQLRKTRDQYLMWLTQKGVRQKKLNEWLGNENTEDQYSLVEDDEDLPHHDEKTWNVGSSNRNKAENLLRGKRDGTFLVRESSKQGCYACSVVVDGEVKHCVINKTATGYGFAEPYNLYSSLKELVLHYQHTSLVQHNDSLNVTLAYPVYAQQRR
Description: as §1, §2

[11] = biological target: T11, PKCβ (Homo sapiens, UniProt P05771); settings: 5 μM compound, 50 μM ATP, vs vehicle control; negative = inhibition
T11 construct: purchased Signal Chem (Richmond, BC, Canada)
Description: as §1, §2

[12] = biological target: T12, P38α (Homo sapiens, UniProt Q16539); settings: 5 μM compound, 50 μM ATP, vs vehicle control; negative = inhibition
T12 construct: purchased Signal Chem (Richmond, BC, Canada)
T12 sequence (Q16539 whole entry): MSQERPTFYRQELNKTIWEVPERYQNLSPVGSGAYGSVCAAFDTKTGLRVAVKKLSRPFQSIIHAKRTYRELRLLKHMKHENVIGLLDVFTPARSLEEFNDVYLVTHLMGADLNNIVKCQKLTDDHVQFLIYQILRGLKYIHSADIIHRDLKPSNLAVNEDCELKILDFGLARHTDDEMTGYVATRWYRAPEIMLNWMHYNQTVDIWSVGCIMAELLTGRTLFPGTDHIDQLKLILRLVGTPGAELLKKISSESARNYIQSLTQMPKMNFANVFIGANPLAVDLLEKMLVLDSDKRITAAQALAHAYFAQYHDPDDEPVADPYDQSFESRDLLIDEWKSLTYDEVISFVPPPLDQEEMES
Description: as §1, §2

[13] = biological target: T13, CamK2a (Homo sapiens, UniProt Q9UQM7); settings: 5 μM compound, 50 μM ATP, vs vehicle control; negative = inhibition
T13 construct: purchased Signal Chem (Richmond, BC, Canada)
T13 sequence (Q9UQM7 whole entry): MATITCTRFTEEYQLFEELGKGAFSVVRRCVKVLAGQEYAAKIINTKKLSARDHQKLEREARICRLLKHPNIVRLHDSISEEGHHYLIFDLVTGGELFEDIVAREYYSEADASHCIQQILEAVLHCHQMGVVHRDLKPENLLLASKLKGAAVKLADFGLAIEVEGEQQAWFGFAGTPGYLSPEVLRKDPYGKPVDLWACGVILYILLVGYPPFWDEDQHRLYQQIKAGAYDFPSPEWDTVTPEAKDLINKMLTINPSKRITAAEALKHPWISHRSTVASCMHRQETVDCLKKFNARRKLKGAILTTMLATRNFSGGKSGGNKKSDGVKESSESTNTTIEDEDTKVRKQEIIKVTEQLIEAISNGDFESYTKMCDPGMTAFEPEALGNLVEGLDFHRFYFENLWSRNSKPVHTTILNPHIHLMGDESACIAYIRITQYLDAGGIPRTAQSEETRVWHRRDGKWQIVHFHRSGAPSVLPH
Description: as §1, §2

[14] = 5 μM concentration, given as positive inhibition, read-out: inhibited by % compared to control

Row | SMILES | % activity change [1] | % activity change [2] | % activity change [3] | % activity change [4] | % activity change [5] | % activity change [6] | % activity change [7] | % activity change [8] | % activity change [9] | % activity change [10] | % activity change [11] | % activity change [12] | % activity change [13] | inhibition at 5 µM [6, 14] | inhibition at 5 µM [9, 14] | inhibited by % compared to control [7] | inhibited by % compared to control ([6]; 5 μM concentration, given as positive inhibition)
1 | CC1(C)C=Cc2c(O)cc(O)c(C(=O)/C=C/c3ccccc3)c2O1 [PK302] | 32% | 13% | 1% | 2% | 3% | −10% | −10% | 19% | 6% | −8% | 6% | −4% | 5% | – | – | – | –
2 | CC(=O)c1c(O)c(C)c(O)c(Cc2c(O)c3c(c(C(=O)/C=C/c4ccccc4)c2O)OC(C)(C)C=C3)c1O [Rottlerin, (E)-1-[6-[(3-acetyl-2,4,6-trihydroxy-5-methylphenyl)methyl]-5,7-dihydroxy-2,2-dimethylchromen-8-yl]-3-phenylprop-2-en-1-one] | 6% | −7% | 1% | −5% | 3% | −14% | 7% | 12% | −25% | −10% | 0% | −1% | 7% | 14% | 25% | – | –
3 | Oc1cc(O)c(Cc2c(O)cc(O)cc2O)c(O)c1 [PK103] | 9% | −1% | 3% | 6% | 0% | −6% | −12% | 7% | 5% | −6% | 3% | −5% | 6% | – | – | 12% | –
4 | CC(=O)c1c(O)c(C)c(O)c(Cc2c(O)c3c(c4c2OC(c2ccccc2)CC4=O)OC(C)(C)C=C3)c1O (stereo not drawn) [PK202] | 1% | 9% | 10% | 6% | 4% | −12% | −12% | 15% | −3% | −2% | 1% | −1% | 6% | – | – | 12% | 12%
